In this experiment the test system is tracheae from guinea pigs. The experiment in a line: passive Shultz-Dale reaction (broncho-dilative activity), relaxation of antigen-contracted tracheal strips. The following applies: Cavia porcellus; concentration of 50% relaxation; passively sensitized guinea pig tracheal zig-zag strips, 37° C., antigen (egg white albumin) 1 μg/ml. On the set-up: species or system Male Hartley guinea pigs. On the procedure: Effect on passive Shultz-Dale reaction (broncho-dilative activity)
Male Hartley guinea pigs weighing 350 to 500 g were passively sensitized by intraperitoneal injection of rabbit anti-OA serum prepared in advance by the method of Koda et al. [Folia Pharmacol., Japon 66, 237, (1970)]. After 24 hours, tracheae were removed from guinea pigs and used for experiment. The zig-zag strips of the tracheae were prepared by the method of Emmerson and Mackay [J. Pharm. Pharmacol., 31, 798, (1979)]. The strips were suspended in Krebs-Henseleit solution at 37° C. under aeration of a mixed gas of 95% oxygen and 5% carbon dioxide, and equilibrated for one hour. Then, antigen (egg white albumin) was introduced in the solution (final concentration; 1 μg/ml), and the contraction was measured by isotonic transducer (TD-112s, made by Nihon Kohden K. K., Japan) and recorded on a recorder (Type 3066, made by Yokogawa-Hokushin Denki, K. K. Japan). After the contraction curves reached a plateau, the test compounds were successively added in order to get cumulative concentration-relaxation curves. The concentration of 50% relaxation rate (IC50) was calculated from the regression line, which was obtained from the cumulative concentration-relaxation curves.

From patent publication US5484924A, “Imidazonaphthyridine derivatives” (Kyowa Hakko Kogyo Co., Ltd., priority 1991, dated 1996) come the findings set out here.

On to `S=c1c2[nH]cnc2c2cccnc2n1-c1ccccc1` [Compound 1, 5-Phenyl-3H-imidazo[4,5-c][1,8]naphthyridin-4(5H)-thione], for which the IC50 – broadly, the concentration needed to halve the response being measured – worked out at 4.8 µM.
